# Entries after “also recorded” stand apart in the source; their conditions may differ.
# Columns and labels:
# [1] = test system: hematic levels of triglycerides and total cholesterol; assay: Hypolipidemizing activity in mouse made hyperlipidemic by Triton WR-1339; format: in vivo, mouse (Swiss); conditions: 500 mg/kg per os; for Total cholesterol, % mg / Triglycerides, % mg: serum after 18 hours fasting; for Total cholesterol, % variation / Triglycerides, % variation: vs carrier
# Description: (§1) The preparations administered "in vivo" by oral route, comprise a 0.5% suspension of carboxymethylcellulose in a neutral pH normal physiological saline for the compounds (3), (4) and (5), while for the compounds (2) and (6) the preparation comprises a solution in NaOH (0.1N) at pH 7-7.5. The hypolipidemizing activity of the substances under test was evaluated as the ability to decrease the hematic levels of triglycerides and total cholesterol in animals made hyperlipidemic by administration of Triton (antihyperlipidemic agents, J. N. Moss, Screening Methods in Pharmacology,Ed. Robert A. Turner and P. Hebborn, volume II, Academic Press, pages 121-143). The test was carried out on two animal species: rat and mouse. Male Wistar rats and Swiss mice were used, held at a normal diet, the former weighing 200-260 g, the latter weighing about 26-30 g. The compounds (2), (3), (4), (5) and (6) and the Bezafibrate and Clofibrate of control were administered per os at a dose of 500 mg/kg, simultaneously with a 10% solution in normal saline of Triton WR-1339 endoperitoneally at a rate of 2 ml/kg body weight. After treatment, the animals were divided into lots of eight, and held fasting for 18 hours and then sacrificed. The hematic levels of triglycerides total cholesterol are measured on the serum by enzymatic methods (Test-Combination Triglycerides, Boehring Mannheim GmbH) and colorimetric methods (Test-Combination Cholesterol, Boehring Mannheim GmbH). The results on the hypolipidemizing activity of the compounds under test in rat and mouse are referred in tables I and II.
# [2] = test system: cholesterol and triglycerides; conditions: literature, prior art; cited from earlier work
# [3] = test system: hematic levels of triglycerides and total cholesterol; assay: Hypolipidemizing activity in rat made hyperlipidemic by Triton WR-1339; format: in vivo, rat (male Wistar); conditions: 500 mg/kg per os; for Total cholesterol, % mg / Triglycerides, % mg: serum after 18 hours fasting; for Total cholesterol, % variation / Triglycerides, % variation: vs carrier
# Description: as §1
# [4] = Acute toxicity (DL50) in mouse, oral route; conditions: in vivo, oral (os), 15 days observation
# Description: DL50 was evaluated after administration of the compounds (2), (3), (4), (5) and (6) alone in male albine Swiss mice weighing 27±3 g, using the oral route. The animals were held under observation by checking the mortality and pain signs, if any, for 15 days.
# The DL50 values (mg/kg) are referred in table III.
# [5] = test system: hematic levels of cholesterol and triglycerides; assay: Pharmacological tests of hypolipidemizing activity, overall statements; format: in vivo, rat and mouse; conditions: compared with Bezafibrate and Clofibrate
# Description: as §1
# [6] = test system: hepatic enzymes involved in the biosynthesis de novo of the triglycerides; conditions: literature, appears to occur possibly; cited from earlier work
# cholesterol = conditions: literature, appears to occur possibly; cited from earlier work
# [7] = mouse, os; value as reported in literature: G. Metz et al, Arzneimittel Forschung, 27: 1173; 1977; cited from earlier work
smiles,measurement,setting,value
"CC(C)(Oc1ccc(CCNC(=O)c2ccc(Cl)cc2)cc1)C(=O)O [Bezafibrate, reference compound]","Total cholesterol, % mg",[1],139 % mg
same,"Triglycerides, % mg",[1],100 % mg
same,"Total cholesterol, % variation",[1],-33%
same,"Triglycerides, % variation",[1],-32%
same,hypolipidemizing activity (in words),[2],ability to decrease the hematic levels of cholesterol and triglycerides
same,"Total cholesterol, % mg",[3],210 % mg
same,"Triglycerides, % mg",[3],415 % mg
same,"Total cholesterol, % variation",[3],-22%
same,"Triglycerides, % variation",[3],-20%
"CCOC(=O)C(CC)Cc1ccc(NC(=O)c2ccc(Cl)cc2)cc1 (stereo not shown) [Compound (4), 2-[4-(p-chlorobenzamido)-benzyl]-butyric acid ethyl ester]","Total cholesterol, % mg",[1],129 % mg
same,"Triglycerides, % mg",[1],90 % mg
same,"Total cholesterol, % variation",[1],-38%
same,"Triglycerides, % variation",[1],-39%
same,"Total cholesterol, % mg",[3],200 % mg
same,"Triglycerides, % mg",[3],400 % mg
same,"Total cholesterol, % variation",[3],-26%
same,"Triglycerides, % variation",[3],-23%
same,LD50,[4],> 2000 mg/kg
same,hypocholesterolemizing and hypolipidemizing activity (in words),[5],interesting ability to decrease the hematic levels of cholesterol and triglycerides; also recorded: particularly high hypocholesterolemizing and hypolipidemizing activity
O=C1NC(=O)c2ccccc21 [phthalimide],hypolipidemizing activity (in words),[2],hypocholesterolemizing activity
"CCOC(=O)C(CC)Cc1ccc(NC(=O)Cc2ccc(-n3cccc3)cc2)cc1 (stereo not shown) [Compound (5), 2-{4-[4-(1-pyrryl)-phenylacetamido]-benzyl}-butyric acid ethyl ester]","Total cholesterol, % mg",[1],130 % mg
same,"Triglycerides, % mg",[1],80 % mg
same,"Total cholesterol, % variation",[1],-38%
same,"Triglycerides, % variation",[1],-45%
same,"Total cholesterol, % mg",[3],205 % mg
same,"Triglycerides, % mg",[3],410 % mg
same,"Total cholesterol, % variation",[3],-24%
same,"Triglycerides, % variation",[3],-21%
same,LD50,[4],> 2000 mg/kg
same,hypocholesterolemizing and hypolipidemizing activity (in words),[5],interesting ability to decrease the hematic levels of cholesterol and triglycerides; also recorded: particularly high hypocholesterolemizing and hypolipidemizing activity
"CCOC(=O)C(CC)Cc1ccc(N2C(=O)c3ccccc3C2=O)cc1 (stereo not shown) [Compound (3), 2-(p-phthalimidobenzyl)-butyric acid ethyl ester]","Total cholesterol, % mg",[1],140 % mg
same,"Triglycerides, % mg",[1],64 % mg
same,"Total cholesterol, % variation",[1],-33%
same,"Triglycerides, % variation",[1],-56%
same,"Total cholesterol, % mg",[3],189 % mg
same,"Triglycerides, % mg",[3],390 % mg
same,"Total cholesterol, % variation",[3],-30%
same,"Triglycerides, % variation",[3],-25%
same,LD50,[4],> 1700 mg/kg
same,hypocholesterolemizing and hypolipidemizing activity (in words),[5],interesting ability to decrease the hematic levels of cholesterol and triglycerides; also recorded: particularly high hypocholesterolemizing and hypolipidemizing activity
CC(=O)c1ccccc1N1C(=O)c2ccccc2C1=O [o-(N-phthalimido)acetophenone],inhibiting activity in vivo on hepatic enzymes,[6],inhibiting activity in vivo
same,hypolipidemizing activity (in words),[2],more active than Clofibrate in reducing the serum cholesterol percentage and the triglyceride level
same,cholesterol absorption at the intestinal level,cholesterol,decrease the cholesterol absorption at the intestinal level
same,excretion of cholesterol with the bile,cholesterol,speed up the excretion of cholesterol with the bile
Cc1ccc(C)n1-c1ccc(CC(=O)Nc2nccs2)cc1,hypolipidemizing activity (in words),[2],hypolipidemizing activity lower than that of Bezafibrate
"CCC(Cc1ccc(NC(=O)c2ccccc2C(=O)O)cc1)C(=O)O (stereo not shown) [Compound (6), 2-(p-phthalylaminobenzyl)-butyric acid]","Total cholesterol, % mg",[1],130 % mg
same,"Triglycerides, % mg",[1],64 % mg
same,"Total cholesterol, % variation",[1],-38%
same,"Triglycerides, % variation",[1],-56%
same,"Total cholesterol, % mg",[3],180 % mg
same,"Triglycerides, % mg",[3],380 % mg
same,"Total cholesterol, % variation",[3],-32%
same,"Triglycerides, % variation",[3],-28%
same,LD50,[4],> 2000 mg/kg
same,hypocholesterolemizing and hypolipidemizing activity (in words),[5],interesting ability to decrease the hematic levels of cholesterol and triglycerides; also recorded: particularly high hypocholesterolemizing and hypolipidemizing activity
"CCOC(=O)C(C)(C)Oc1ccc(Cl)cc1 [Clofibrate, reference compound]",DL50,[7],1280 mg/kg
same,"Total cholesterol, % mg",[1],152 % mg
same,"Triglycerides, % mg",[1],115 % mg
same,"Total cholesterol, % variation",[1],-27%
same,"Triglycerides, % variation",[1],-22%
same,hypolipidemizing activity (in words),[2],ability to decrease the hematic levels of cholesterol and triglycerides
same,"Total cholesterol, % mg",[3],218 % mg
same,"Triglycerides, % mg",[3],420 % mg
same,"Total cholesterol, % variation",[3],-19%
same,"Triglycerides, % variation",[3],-19%
"CCC(Cc1ccc(N2C(=O)c3ccccc3C2=O)cc1)C(=O)O (stereo not shown) [Compound (2), 2-(p-phthalimidobenzyl)-butyric acid]","Total cholesterol, % mg",[1],130 % mg
same,"Triglycerides, % mg",[1],60 % mg
same,"Total cholesterol, % variation",[1],-38%
same,"Triglycerides, % variation",[1],-59%
same,"Total cholesterol, % mg",[3],176 % mg
same,"Triglycerides, % mg",[3],360 % mg
same,"Total cholesterol, % variation",[3],-35%
same,"Triglycerides, % variation",[3],-31%
same,LD50,[4],> 2000 mg/kg
same,hypocholesterolemizing and hypolipidemizing activity (in words),[5],interesting ability to decrease the hematic levels of cholesterol and triglycerides; also recorded: particularly high hypocholesterolemizing and hypolipidemizing activity
CC(C)OC(=O)C(C)(C)Oc1ccc(C(=O)c2ccc(Cl)cc2)cc1 [Procetofene],hypolipidemizing activity (in words),[2],hypolipidemizing activity lower than that of Bezafibrate
